How the values were obtained:
[1] = depends on administration form and/or dosage; cited from earlier work
[2] = tested on: whole blood haemostatic activity; assay: Whole blood viscoelastical assay (TEG) during Flolan infusion; assay type: in vivo, human; conditions: 6 healthy volunteers, 4 ng/kg/min IV, after 60 and 120 min infusion
Text: The TEG analyzer uses a small whole blood sample in a rotating cup and a pin suspended in the blood by a torsion wire, which is monitored for motion. To speed up the clot formation, a standardized amount of an activator of coagulation (e.g. Kaolin, tissue factor) may be added to the cup just before the pin is placed in the cup. The torque of the rotating cup is transmitted to the immersed pin only after fibrin and/or fibrin-platelet bonding has linked the cup and pin together. The strength and rate of these bonds affect the magnitude of the pin motion such that strong clots move the pin directly in phase with cup motion. Thus, the TEG technology documents the interaction of platelets with the protein coagulation cascade from the time of placing the blood in the analyzer until initial fibrin formation, clot rate strengthening and fibrin-platelet bonding via GPIIb/IIIa, through eventual clot lysis. […]
With regard to the TEG assay this was performed as recommended by the manufacturer and 340 μl are mixed with 20 μl CaCl 0.2 M (final concentration 11.1 mM in the cup) and kaolin at 37° C. after which the haemostatic activity is recorded as depicted in FIG. 1.

[3] = tested on: critically ill patients admitted to the ICU; assay: Retrospective review of haemofiltration with or without Flolan in the filters; assay type: in vivo, human
Protocol: Ninety-four critically ill patients admitted to the intensive care unit (ICU) underwent haemofiltration with or without concomitant Flolan (prostacyclin) treatment. Flolan was administered in a low dose of 4-6 ng/kg/min in the filters to prevent these from clotting and consequently there was only a minor spill over of Flolan to the systemic circulation. The patients were retrospectively reviewed.

[4] = tested on: platelet aggregation in whole blood; assay: Whole blood platelet aggregation (Multiplate) during Flolan infusion; assay type: in vivo, human; conditions: 6 healthy volunteers, 4 ng/kg/min IV, after 60 and 120 min infusion
Protocol: Six healthy volunteers were administered flolan (prostacyclin) intravenously at a dose of 4 ng/kg/min for 2 h. Blood samples for whole blood viscoelastical assay (Thrombelastography [TEG]) and whole blood platelet aggregation (Multiplate) was obtained before infusion of Flolan, after 60 min infusion of Flolan and after 120 min infusion of Flolan.
Whole blood impedance aggregometry analyzed by the Multiple Platelet function Analyzer (MultiPlate® analyzer). Analysis employing various platelet agonists: ASPItest (activation by arachidonic acid), COLtest (activation by collagen through the collagen receptor), TRAPtest (activation by TRAP-6 stimulates the thrombin receptor on the platelet surface and ADPtest (activation by ADP stimulates platelet activation by the ADP receptors).
MultiPlate continuously records platelet aggregation. The increase of impedance by the attachment of platelets onto the Multiplate sensors is transformed to arbitrary aggregation units (AU) and plotted against time as depicted in FIG. 2.

[5] = tested on: patients with severe sepsis; conditions: cited from earlier work
[6] = Flolan 4-6 ng/kg/min in the filters, n = 24

For `CC#CCC(C)[C@H](O)/C=C/[C@@H]1[C@H]2c3cccc(CCCC(=O)O)c3O[C@H]2C[C@H]1O` (mixture of isomers) [Beraprost], the half time [1] is given as 35 to 40 min.

For `CCCCC[C@H](O)/C=C/[C@@H]1[C@H]2C/C(=C/CCCC(=O)O)O[C@H]2C[C@H]1O` [Flolan, prostacyclin], the “TEG values (R, Angle, MA) vs baseline” value [2] is given as “No significant difference”, the half time [1] is given as 0.5 to 3 min and the “90 day survival (%)” value [3, 6] is given as 67%. The “Platelet count (difference before vs. after haemofiltration)” value [3, 6] was “+14”, the “haemostatic competence as evaluated by transfusion requirements” value ([3]; critically ill patients undergoing haemofiltration) was “does not negatively influence” and the “mortality at 30 days” value ([3]; vs. 39% non-flolan, p=0.12) was 21%. The “mortality at 90 days” value ([3]; vs. 53% non-flolan, p=0.10) was 34%, the “mortality at 365 days” value ([3]; vs. 57% non-flolan, p=0.09) was 38% and the “Multiplate values (ASPI, COL, ADP, TRAP) vs baseline” value [4] was “no significant difference”.

In the case of `CC#CCC(C)[C@H](O)/C=C/[C@@H]1[C@H]2C/C(=C/CCCC(=O)O)C[C@H]2C[C@H]1O` (some centres unmarked) [Iloprost], the half time [1] is given as 20 to 30 min.

In the case of `CSCCNc1nc(SCCC(F)(F)F)nc2c1ncn2[C@@H]1O[C@H](COP(=O)(O)OP(=O)(O)C(Cl)(Cl)P(=O)(O)O)[C@@H](O)[C@H]1O` [cangrelor], the half time [1] is listed as 3 to 5 min.

In the case of “Tifacogin: recombinant tissue factor pathway inhibitor”, the All cause mortality ([5]; 1754 patients, severe sepsis, vs 33.9% placebo, p=0.88) is listed as 34.2% and the risk of bleeding ([5]; in vivo) is listed as “increase in risk of bleeding”.

Source: patent publication US9381243B2, “Methods of identifying critically ill patients at increased risk of development of organ failure and compounds for the treatment hereof” (Rigshospitalet, priority 2008, dated 2016)
